# Test results taken from article PMC9169680 (Science (New York, N.Y.), 2022).
# Tests used:
# [1] = molecular target: Tt-CI (Tetrahymena thermophila complex I, in Tt-SC I+III2) (Tetrahymena thermophila, UniProt Q23KE4); test: cryo-EM structure; assay type: binding; settings: 2.6 Å nominal resolution; native bound cofactor of the peripheral arm
# [2] = molecular target: Tetrahymena thermophila complex III protomer (Tt-CIII) (Tetrahymena thermophila (endogenous)); test: cryo-EM structure
# Tt-CI (Tetrahymena thermophila complex I, in Tt-SC I+III2), sequence (Q23KE4 32-474): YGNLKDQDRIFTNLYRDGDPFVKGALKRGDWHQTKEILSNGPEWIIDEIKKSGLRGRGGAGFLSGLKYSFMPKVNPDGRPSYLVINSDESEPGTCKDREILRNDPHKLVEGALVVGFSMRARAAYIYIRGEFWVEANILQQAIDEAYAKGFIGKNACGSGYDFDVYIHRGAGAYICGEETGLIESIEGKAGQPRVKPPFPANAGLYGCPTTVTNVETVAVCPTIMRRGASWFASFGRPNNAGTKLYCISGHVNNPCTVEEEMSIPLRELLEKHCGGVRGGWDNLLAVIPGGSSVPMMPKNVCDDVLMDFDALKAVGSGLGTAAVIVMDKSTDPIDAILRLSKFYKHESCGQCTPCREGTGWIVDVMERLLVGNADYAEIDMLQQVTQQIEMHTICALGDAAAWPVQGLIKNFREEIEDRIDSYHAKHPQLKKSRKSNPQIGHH
# Tt-CI (Tetrahymena thermophila complex I, in Tt-SC I+III2), sequence (Q951B1 1-442 partner): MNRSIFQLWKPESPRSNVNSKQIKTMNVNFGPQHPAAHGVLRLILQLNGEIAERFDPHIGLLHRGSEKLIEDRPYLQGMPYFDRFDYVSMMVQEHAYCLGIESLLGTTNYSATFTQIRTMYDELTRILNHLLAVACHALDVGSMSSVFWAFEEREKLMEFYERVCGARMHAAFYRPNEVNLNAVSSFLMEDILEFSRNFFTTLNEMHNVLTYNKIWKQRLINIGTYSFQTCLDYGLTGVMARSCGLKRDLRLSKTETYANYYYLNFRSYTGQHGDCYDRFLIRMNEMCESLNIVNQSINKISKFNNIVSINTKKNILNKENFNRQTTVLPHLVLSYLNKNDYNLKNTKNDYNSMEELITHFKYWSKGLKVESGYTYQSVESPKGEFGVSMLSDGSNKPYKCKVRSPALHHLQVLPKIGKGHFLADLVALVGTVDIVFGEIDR
# Tt-CI (Tetrahymena thermophila complex I, in Tt-SC I+III2), sequence (Q951B4 1-162 partner): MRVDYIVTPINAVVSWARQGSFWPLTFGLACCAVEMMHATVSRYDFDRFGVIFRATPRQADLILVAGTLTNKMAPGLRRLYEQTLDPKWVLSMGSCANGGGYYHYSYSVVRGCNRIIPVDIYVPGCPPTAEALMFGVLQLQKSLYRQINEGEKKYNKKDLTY
# Tt-CI (Tetrahymena thermophila complex I, in Tt-SC I+III2), sequence (Q950Z7 1-121 partner): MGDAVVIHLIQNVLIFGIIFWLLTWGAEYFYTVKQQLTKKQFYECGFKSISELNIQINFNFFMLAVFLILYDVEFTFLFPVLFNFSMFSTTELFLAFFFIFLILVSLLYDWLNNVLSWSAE
stoichiometry N [2],Molecule,cryo-EM structure [1]
–,Cc1cc2nc3c(=O)[nH]c(=O)nc-3n(C[C@H](O)[C@H](O)[C@H](O)COP(=O)(O)O)c2cc1C [flavin mononucleotide],relative locations of the flavin mononucleotide (FMN) co-factor and eight ironsulfur clusters
2,Tetrahymena thermophila complex III protomer (Tt-CIII),–
